These results are taken from ChEMBL document CHEMBL5512646, “Synthesis, kinase inhibition and anti-leukemic activities of diversely substituted indolopyrazolocarbazoles” (Eur J Med Chem, 2024).

For test [1], the system named is MOLM-13. Nature of the test: Cytotoxicity against human MOLM-13 cells assessed as induction of cell death incubated for 24 hrs by WST-1 assay. The settings on record: MOLM-13, 24 h. Background: Tetrazolium dyes change colour on reduction, which living cells bring about.
Test [2] deals with HCT-116. Nature of the test: Cytotoxicity against human HCT-116 cells assessed as inhibition of cell growth incubated for 24 hrs by MTT assay. It counts as functional, cell-based. The following applies: HCT-116, 24 h.
For test [3], the target named is MAP/microtubule affinity-regulating kinase 3 (Homo sapiens, UniProt P27448). Nature of the test: Inhibition of human MARK3 using ATPKKLNRTLSVA as substrate in presence of ATP.
Sequence of MAP/microtubule affinity-regulating kinase 3 (P27448 whole entry): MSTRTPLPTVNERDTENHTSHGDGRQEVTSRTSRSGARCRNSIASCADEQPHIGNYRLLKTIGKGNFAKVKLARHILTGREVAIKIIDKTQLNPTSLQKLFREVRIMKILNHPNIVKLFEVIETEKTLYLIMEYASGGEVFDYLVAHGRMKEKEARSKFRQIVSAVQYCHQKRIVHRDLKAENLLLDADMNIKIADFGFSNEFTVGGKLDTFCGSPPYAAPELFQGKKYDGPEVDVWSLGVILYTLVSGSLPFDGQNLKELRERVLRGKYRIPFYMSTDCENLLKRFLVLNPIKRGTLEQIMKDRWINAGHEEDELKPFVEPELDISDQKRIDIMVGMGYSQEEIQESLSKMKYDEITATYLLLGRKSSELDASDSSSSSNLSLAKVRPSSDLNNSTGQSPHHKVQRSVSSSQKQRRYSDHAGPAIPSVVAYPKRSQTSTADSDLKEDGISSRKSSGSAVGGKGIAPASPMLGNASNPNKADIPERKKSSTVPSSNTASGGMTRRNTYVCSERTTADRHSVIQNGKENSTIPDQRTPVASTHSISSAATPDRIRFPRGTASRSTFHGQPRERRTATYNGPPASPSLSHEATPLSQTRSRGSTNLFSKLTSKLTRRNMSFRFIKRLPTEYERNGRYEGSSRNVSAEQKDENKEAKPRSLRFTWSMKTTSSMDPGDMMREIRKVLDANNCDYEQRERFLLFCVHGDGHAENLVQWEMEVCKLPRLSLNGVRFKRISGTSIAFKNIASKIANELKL
For test [4], the target named is Glycogen synthase kinase-3 beta (Homo sapiens, UniProt P49841). Nature of the test: Inhibition of human GSK3beta using Poly Glut Tyr as substrate in presence of ATP.
Sequence of Glycogen synthase kinase-3 beta (P49841 whole entry): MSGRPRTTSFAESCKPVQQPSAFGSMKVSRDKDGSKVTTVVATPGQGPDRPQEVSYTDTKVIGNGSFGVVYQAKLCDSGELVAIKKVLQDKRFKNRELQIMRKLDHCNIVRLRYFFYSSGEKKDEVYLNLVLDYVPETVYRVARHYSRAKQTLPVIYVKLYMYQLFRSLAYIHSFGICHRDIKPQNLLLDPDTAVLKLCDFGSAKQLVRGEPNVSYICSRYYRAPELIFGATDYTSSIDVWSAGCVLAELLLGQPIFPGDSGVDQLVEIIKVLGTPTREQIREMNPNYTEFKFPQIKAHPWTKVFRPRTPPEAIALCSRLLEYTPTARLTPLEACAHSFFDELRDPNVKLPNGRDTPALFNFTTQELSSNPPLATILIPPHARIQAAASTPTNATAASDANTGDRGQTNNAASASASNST
Test [5] concerns the target 5'-AMP-activated protein kinase catalytic subunit alpha-2 (Homo sapiens, UniProt P54646). Nature of the test: Inhibition of human AMPK using HMRSAMSGLHLVKRR as substrate in presence of ATP.
Test [6] addresses T1, Tyrosine-protein kinase JAK3 (Homo sapiens, UniProt P52333).
T1 sequence (P52333 whole entry): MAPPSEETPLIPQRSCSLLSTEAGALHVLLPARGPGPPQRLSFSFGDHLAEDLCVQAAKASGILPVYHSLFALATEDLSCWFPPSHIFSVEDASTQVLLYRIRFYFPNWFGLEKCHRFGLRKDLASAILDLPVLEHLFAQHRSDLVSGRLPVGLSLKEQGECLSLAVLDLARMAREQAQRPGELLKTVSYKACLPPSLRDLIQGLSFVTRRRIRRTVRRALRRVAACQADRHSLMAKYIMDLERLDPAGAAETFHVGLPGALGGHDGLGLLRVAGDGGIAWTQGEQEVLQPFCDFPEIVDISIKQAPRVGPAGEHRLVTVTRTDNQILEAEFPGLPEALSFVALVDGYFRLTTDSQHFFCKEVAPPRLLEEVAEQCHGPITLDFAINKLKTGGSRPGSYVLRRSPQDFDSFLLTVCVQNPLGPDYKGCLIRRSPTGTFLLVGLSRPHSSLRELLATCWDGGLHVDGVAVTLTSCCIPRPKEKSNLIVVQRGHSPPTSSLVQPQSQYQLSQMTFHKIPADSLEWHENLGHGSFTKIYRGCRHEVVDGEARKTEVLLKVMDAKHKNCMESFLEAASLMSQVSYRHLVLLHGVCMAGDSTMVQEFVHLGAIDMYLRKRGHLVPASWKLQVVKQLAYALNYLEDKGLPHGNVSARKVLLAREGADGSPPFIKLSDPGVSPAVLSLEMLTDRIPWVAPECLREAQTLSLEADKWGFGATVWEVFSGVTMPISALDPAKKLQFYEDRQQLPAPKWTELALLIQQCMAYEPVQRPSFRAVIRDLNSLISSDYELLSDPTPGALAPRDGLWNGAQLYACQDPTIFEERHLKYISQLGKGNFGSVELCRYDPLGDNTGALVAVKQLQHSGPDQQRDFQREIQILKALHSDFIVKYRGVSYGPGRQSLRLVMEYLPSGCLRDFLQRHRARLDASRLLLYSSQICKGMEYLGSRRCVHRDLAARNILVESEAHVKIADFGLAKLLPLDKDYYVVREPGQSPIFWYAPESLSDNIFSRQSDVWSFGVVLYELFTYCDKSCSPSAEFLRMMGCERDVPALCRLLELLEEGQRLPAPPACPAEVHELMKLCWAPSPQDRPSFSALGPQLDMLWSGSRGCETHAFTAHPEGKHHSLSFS
Nature of the test: Inhibition of human JAK3 using MBP as substrate in presence of ATP.

Test [7] has as its target Serine/threonine-protein kinase pim-2 (Homo sapiens, UniProt Q9P1W9). Nature of the test: Inhibition of PIM-2 (unknown origin).
Test [8] concerns the target Serine/threonine-protein kinase N2 (Homo sapiens, UniProt Q16513). Nature of the test: Inhibition of human PRK2 using ISDELMDATFADQEAKKK as substrate in presence of ATP.
Test [9] addresses Serine/threonine-protein kinase pim-1 (Homo sapiens, UniProt P11309).
Description: Inhibition of PIM-1 (unknown origin)

Bounds are passed on as bounds.

Sequence of Serine/threonine-protein kinase N2 (Q16513 whole entry): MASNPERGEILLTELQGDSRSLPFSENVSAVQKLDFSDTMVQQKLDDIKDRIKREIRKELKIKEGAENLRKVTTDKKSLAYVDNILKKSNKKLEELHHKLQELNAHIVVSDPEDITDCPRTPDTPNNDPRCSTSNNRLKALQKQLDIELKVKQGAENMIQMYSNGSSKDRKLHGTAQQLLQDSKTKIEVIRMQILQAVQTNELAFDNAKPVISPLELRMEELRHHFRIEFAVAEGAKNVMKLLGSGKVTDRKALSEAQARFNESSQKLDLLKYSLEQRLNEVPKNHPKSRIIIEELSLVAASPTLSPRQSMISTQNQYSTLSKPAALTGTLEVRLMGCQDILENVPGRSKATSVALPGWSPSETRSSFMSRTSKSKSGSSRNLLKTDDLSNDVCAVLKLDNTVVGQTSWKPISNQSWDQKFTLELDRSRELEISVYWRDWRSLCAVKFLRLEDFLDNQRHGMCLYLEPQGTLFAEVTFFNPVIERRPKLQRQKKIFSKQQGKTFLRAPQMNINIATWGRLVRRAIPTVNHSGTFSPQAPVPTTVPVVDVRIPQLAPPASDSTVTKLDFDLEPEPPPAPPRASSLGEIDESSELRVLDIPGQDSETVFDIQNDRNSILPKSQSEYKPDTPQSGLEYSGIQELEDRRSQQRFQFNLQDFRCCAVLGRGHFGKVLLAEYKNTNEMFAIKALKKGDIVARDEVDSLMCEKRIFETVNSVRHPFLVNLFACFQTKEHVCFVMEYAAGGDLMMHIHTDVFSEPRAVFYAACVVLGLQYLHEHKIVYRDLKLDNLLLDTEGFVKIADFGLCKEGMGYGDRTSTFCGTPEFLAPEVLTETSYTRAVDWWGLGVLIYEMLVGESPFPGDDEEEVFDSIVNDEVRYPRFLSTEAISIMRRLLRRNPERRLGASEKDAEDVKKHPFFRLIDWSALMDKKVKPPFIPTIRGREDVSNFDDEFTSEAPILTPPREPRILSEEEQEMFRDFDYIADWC
Sequence of Serine/threonine-protein kinase pim-1 (P11309 whole entry): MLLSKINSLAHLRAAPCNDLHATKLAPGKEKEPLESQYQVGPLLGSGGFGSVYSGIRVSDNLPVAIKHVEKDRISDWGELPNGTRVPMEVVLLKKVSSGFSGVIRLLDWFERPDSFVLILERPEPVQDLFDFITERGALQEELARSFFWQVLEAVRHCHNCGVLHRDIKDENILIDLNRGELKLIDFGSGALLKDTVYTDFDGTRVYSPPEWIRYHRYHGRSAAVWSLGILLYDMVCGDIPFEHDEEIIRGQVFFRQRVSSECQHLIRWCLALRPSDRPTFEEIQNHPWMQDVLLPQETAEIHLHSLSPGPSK
Sequence of 5'-AMP-activated protein kinase catalytic subunit alpha-2 (P54646 whole entry): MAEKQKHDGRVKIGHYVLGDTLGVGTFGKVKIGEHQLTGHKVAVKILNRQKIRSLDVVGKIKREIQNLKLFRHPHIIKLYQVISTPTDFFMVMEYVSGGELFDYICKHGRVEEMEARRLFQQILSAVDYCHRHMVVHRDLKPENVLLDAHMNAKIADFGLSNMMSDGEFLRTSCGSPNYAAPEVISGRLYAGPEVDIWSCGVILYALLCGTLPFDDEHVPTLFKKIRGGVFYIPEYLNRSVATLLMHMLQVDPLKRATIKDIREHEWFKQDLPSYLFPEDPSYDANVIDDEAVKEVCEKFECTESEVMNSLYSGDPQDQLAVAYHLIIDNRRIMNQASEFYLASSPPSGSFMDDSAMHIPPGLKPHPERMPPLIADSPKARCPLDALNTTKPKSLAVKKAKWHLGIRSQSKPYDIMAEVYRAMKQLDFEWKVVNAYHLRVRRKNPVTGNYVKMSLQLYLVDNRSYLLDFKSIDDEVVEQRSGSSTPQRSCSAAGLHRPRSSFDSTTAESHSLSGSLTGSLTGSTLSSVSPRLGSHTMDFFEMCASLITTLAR
Sequence of Serine/threonine-protein kinase pim-2 (Q9P1W9 whole entry): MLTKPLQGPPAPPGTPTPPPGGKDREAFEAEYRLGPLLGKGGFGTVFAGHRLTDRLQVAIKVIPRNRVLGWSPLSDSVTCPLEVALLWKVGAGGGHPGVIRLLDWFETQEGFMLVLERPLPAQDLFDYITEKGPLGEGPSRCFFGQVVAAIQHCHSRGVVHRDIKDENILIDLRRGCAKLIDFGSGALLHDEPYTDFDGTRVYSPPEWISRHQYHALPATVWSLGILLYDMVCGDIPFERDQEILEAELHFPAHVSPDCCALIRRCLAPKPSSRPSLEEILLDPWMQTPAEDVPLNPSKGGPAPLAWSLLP

A word on the EC50: it is the concentration at which the effect is half-maximal. As for `NCCCCn1c2ccccc2c2c3[nH]ncc3c3c4ccccc4[nH]c3c21`, the EC50 in test [1] worked out at 2.7 µM.

As to `CCCCCn1c2ccccc2c2c3[nH]ncc3c3c4ccccc4[nH]c3c21`, the EC50 in test [1] was determined as 15 µM.

For the compound `CCN(CC)CCCn1c2ccccc2c2c3[nH]ncc3c3c4ccccc4[nH]c3c21`, the EC50 in [1] was over 4 µM. What is called IC50 is the point on the concentration scale where inhibition reaches its midpoint. `OC[C@H]1O[C@@H](n2c3ccccc3c3c4cn[nH]c4c4c5ccccc5[nH]c4c32)[C@H](O)[C@@H](O)[C@@H]1O`: the IC50 in test [2] came out at 11 µM.

On to `CCCCn1c2ccccc2c2c3[nH]ncc3c3c4ccccc4[nH]c3c21`, for which, in test [1], the EC50 is over 5 µM. With `CNCCCn1c2ccccc2c2c3cn[nH]c3c3c4ccccc4[nH]c3c21`, the IC50 in [3] was determined as 0.024 µM; in [4], 0.128 µM; in [5], 0.0144 µM; in test [6], 0.041 µM; in test [7] it was 0.316 µM; in [8], 0.009 µM. Besides, half-maximal inhibition in [9] (IC50) required 0.045 µM.

Regarding `CN(C)CCCn1c2ccccc2c2c3[nH]ncc3c3c4ccccc4[nH]c3c21`, the EC50 in test [1] came out at 3.8 µM. On the same count and under the same terms, the value for `OCCCCn1c2ccccc2c2c3[nH]ncc3c3c4ccccc4[nH]c3c21` was 4.1 µM; that for `CCN(CC)CCCCn1c2ccccc2c2c3[nH]ncc3c3c4ccccc4[nH]c3c21` was 4.3 µM; that for `NCCCn1c2ccccc2c2c3[nH]ncc3c3c4ccccc4[nH]c3c21` was over 40 µM. On to `OC[C@H]1O[C@@H](n2c3ccccc3c3c4[nH]ncc4c4c5ccccc5[nH]c4c32)[C@H](O)[C@@H](O)[C@@H]1O`, for which the IC50 in [2] was 12 µM.

As to `CCCCCn1c2ccccc2c2c3cn[nH]c3c3c4ccccc4[nH]c3c21`, the EC50 in [1] is over 5 µM.
